Test results taken from paper PMC9598656, “In Vitro Activity of Robenidine Analogues NCL259 and NCL265 against Gram-Negative Pathogens” (Antibiotics, 2022).
Peptide text beside a SMILES is read from it. * marks the point of attachment. βNA = c1ccc2cc(N*)ccc2c1

Key:
[1] = test system: K. oxytoca 13GNB–582; assay: MIC, broth micro-dilution; format: cell-based; conditions: Klebsiella oxytoca, read-out: MIC, Single Drug
Method: (§1) MICs for NCL259 and NCL265 (serial two-fold dilutions commencing at 256 µg/mL) were determined (in duplicate) in round bottom 96–well microtitre trays (Sarstedt 82.1582.001), using the broth micro-dilution method recommended by the Clinical and Laboratory Standards Institute (CLSI). We have shown previously that robenidine can chelate calcium ions from cation-adjusted Mueller-Hinton broth, which causes the loss of activity of robenidine. Therefore, LB broth was used in this study. Additionally, considering the low solubility of robenidine and its analogues in aqueous solutions, two-fold serial dilutions of stock solutions of these compounds were prepared in 100% DMSO [21]. The MIC for ampicillin against each isolate was determined for each test to serve as an internal quality control. The MICs of isolates were determined by visual reading and using an EnSpire Multimode Plate Reader 2300 at A600nm.
(§2) MICs of NCL259 or NCL265 in the presence of the efflux pump inhibitor, PAβN were determined using a checkerboard assay. […] Briefly, a two-fold serial dilution of each antimicrobial solution was prepared in its appropriate solvent (e.g., DMSO for robenidine analogues and Milli-Q water for PAβN), and 1 μL of each dilution was added from wells 12 to 3 (12.8–0.25 μg/mL for robenidine analogues, and 32–2 μg/mL for PAβN). Thereafter, 89 μL of LB broth was added to each well followed by the addition of 10 μL of bacterial suspension (1–5 × 10^6 CFU/mL) to each well. In this manner, the final concentration of DMSO in each well was 1%. The plate was subsequently incubated at 37 °C for 24 h. The resazurin assay was used for assessment of drug susceptibility of NCL259 and NCL265 (Supplementary Table S1–S6). The same method was also used to test the MICs of NCL259 or NCL265 in the presence of PMB against a range of Gram-negative reference strains (E. coli ATCC 25922, E. coli ATCC 10763, P. aeruginosa PAO1, P. aeruginosa ATCC 27853, A. baumannii ATCC 12457, A. baumannii ATCC 19606, K. pneumoniae ATCC 4352 and K. pneumoniae ATCC 33495). Stock solutions were prepared prior to use (25.6–0.25 mg/mL for robenidine analogues; 12.8–0.25 mg/mL for PMB). The interaction of two antibiotics was calculated as the fractional inhibitory concentration index (FICI) using the following formula:(1) FICI=MICA in combination/MICA alone+MICB in combination/MICB alone where A is NCL259 or NCL265 and B is PAβN or PMB. According to FICI calculations, the interaction between two compounds were interpreted as follows: synergistic (FICI ≤ 0.5); additive or partially synergistic (0.5 < FICI ≤ 1); indifferent (1 < FICI ≤ 4); and antagonistic (FICI > 4), as described previously. The dose reduction index (DRI) was used to describe the difference between the effective doses of NCL259 or NCL265 in combination with PMB or PAβN in comparison to their individual doses, using the following formula:(2) DRI=MICA alone/MICA in combination

[2] = test system: K. pneumoniae 13GNB–550; assay: MIC, broth micro-dilution; format: cell-based; conditions: Klebsiella pneumoniae, read-out: MIC, Single Drug
Method: as §1, §2

[3] = test system: K. pneumoniae 13GNB–429; assay: MIC, broth micro-dilution; format: cell-based; conditions: Klebsiella pneumoniae, read-out: MIC, Single Drug
Method: as §1, §2

[4] = test system: K. pneumoniae 13GNB–550; assay: Checkerboard assay with PAβN; format: cell-based, Klebsiella pneumoniae; conditions: for concentration at the marked interaction: resazurin
Method: as §2
(§3) Evaluation of DRI is important clinically because it can allow the dose of a potentially toxic drug to be lowered in combination with another compound without reducing the drug’s efficacy. A DRI higher than 1 is viewed as beneficial.

[5] = test system: K. pneumoniae 13GNB–429; assay: Checkerboard assay with PAβN; format: cell-based, Klebsiella pneumoniae; conditions: for concentration at the marked interaction: resazurin
Method: as §2, §3

[6] = test system: K. oxytoca 13GNB–582; assay: Checkerboard assay with PAβN; format: cell-based; conditions: for concentration at the marked interaction: resazurin
Method: as §2, §3

Work on `NC(N)=NCCC[C@H](NC(=O)[C@@H](N)Cc1ccccc1)C(=O)Nc1ccc2ccccc2c1` [PAβN, phenylalanine-arginine-beta-naphthylamide, reference compound] (H-Phe-Arg-βNA) yielded an MIC [1] of over 32 µg/mL, an MIC [2] of over 32 µg/mL and an MIC [3] of over 32 µg/mL. For the same compound, the “DRI PAβN:NCL259” value ([4]; K. pneumoniae 13GNB–550) was 2, the “DRI PAβN:NCL265” value ([4]; K. pneumoniae 13GNB–550) was 2 and the “MIC, Combination” value ([4]; K. pneumoniae 13GNB–550, PAβN + NCL259) was 32 µg/mL. The “MIC, Combination” value ([4]; K. pneumoniae 13GNB–550, PAβN + NCL265) was 32 µg/mL, the “concentration at the marked interaction” value ([4]; Table S2, NCL259 + PAβN, replicate 1) was 16 µg/mL and the “concentration at the marked interaction” value ([4]; Table S2, NCL259 + PAβN, replicate 2) was 8 µg/mL. For the same compound, the “concentration at the marked interaction” value ([4]; Table S5, NCL265 + PAβN, replicate 1) was 8 µg/mL, the “concentration at the marked interaction” value ([4]; Table S5, NCL265 + PAβN, replicate 2) was 8 µg/mL and the “DRI PAβN:NCL259” value ([5]; K. pneumoniae 13GNB–429) was 4. For the same compound, the “DRI PAβN:NCL265” value ([5]; K. pneumoniae 13GNB–429) was 2, the “MIC, Combination” value ([5]; K. pneumoniae 13GNB–429, PAβN + NCL259) was 16 µg/mL and the “MIC, Combination” value ([5]; K. pneumoniae 13GNB–429, PAβN + NCL265) was 32 µg/mL. The “concentration at the marked interaction” value ([5]; Table S1, NCL259 + PAβN, replicate 1) was 8 µg/mL, the “concentration at the marked interaction” value ([5]; Table S1, NCL259 + PAβN, replicate 2) was 8 µg/mL and the “concentration at the marked interaction” value ([5]; Table S4, NCL265 + PAβN, replicate 1) was 8 µg/mL. The “concentration at the marked interaction” value ([5]; Table S4, NCL265 + PAβN, replicate 2) was 4 µg/mL, the “DRI PAβN:NCL259” value ([6]; K. oxytoca 13GNB–582) was 4 and the “DRI PAβN:NCL265” value ([6]; K. oxytoca 13GNB–582) was 2. For the same compound, the “MIC, Combination” value ([6]; K. oxytoca 13GNB–582, PAβN + NCL259) was 16 µg/mL, the “MIC, Combination” value ([6]; K. oxytoca 13GNB–582, PAβN + NCL265) was 32 µg/mL and the “concentration at the marked interaction” value ([6]; Table S3, NCL259 + PAβN, replicate 1) was 8 µg/mL. The “concentration at the marked interaction” value ([6]; Table S3, NCL259 + PAβN, replicate 2) was 8 µg/mL, the “concentration at the marked interaction” value ([6]; Table S6, NCL265 + PAβN, replicate 1) was 8 µg/mL and the “concentration at the marked interaction” value ([6]; Table S6, NCL265 + PAβN, replicate 2) was 8 µg/mL.
